Test systems include SF-268 CNS; RPMI-8226 leukemia; UACC-62 melanoma; OVCAR-5 ovarian; BT-549 breast; COLO 205 colon; 786-0 renal; HOP-92 NSCLC; OVCAR-8 ovarian; RXF 393 renal.
What all share (assay): NCI anticancer screen, dose series, 48 h

Structures are written as SMILES.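 96-well plates; 48 h exposure; 5 concentrations. Endpoints by linear interpolation between flanking doses. Not reached: highest tested concentration assigned. GI50 marks 50% less growth. The concentration for full growth arrest is given as TGI.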

For the compound `Cc1cc(C)nc(NS(=O)(=O)c2ccc(NC(=O)c3c4ccccc4nc4ccccc34)cc2)n1`, the TGI in the assay on SF-268 CNS, in the assay with RPMI-8226 leukemia, in the assay with UACC-62 melanoma, in the assay on OVCAR-5 ovarian, in the assay with BT-549 breast and in the assay on COLO 205 colon was above 100 µM in each case. Besides, the TGI with 786-0 renal, with HOP-92 NSCLC and in the assay with OVCAR-8 ovarian was above 100 µM each time.

Regarding `C/C(CC(O)(C(F)(F)F)C(F)(F)F)=N\NC(N)=O`, the TGI in the assay on SF-268 CNS, in the assay on RPMI-8226 leukemia, with UACC-62 melanoma, in the assay with COLO 205 colon, with 786-0 renal and with RXF 393 renal was above 10 µM throughout. Further, the TGI in the assay with HOP-92 NSCLC and in the assay with OVCAR-8 ovarian was above 10 µM each time.

In the case of `c1ccc(-c2csc3c4ccccc4c4ccccc4[n+]23)cc1`, the TGI is 9.65 µM in the assay on SF-268 CNS; above 100 µM in the assay on RPMI-8226 leukemia; 5.27 µM in the assay with UACC-62 melanoma; 35.8 µM with OVCAR-5 ovarian; 7.73 µM with COLO 205 colon; 21 µM in the assay with 786-0 renal. For the same compound, the TGI in the assay with RXF 393 renal amounted to 26.7 µM; in the assay with HOP-92 NSCLC, 24.9 µM; in the assay on OVCAR-8 ovarian it was 17.9 µM.

Regarding `COC(=O)[C@H]1C=NN[C@@H]1C(=O)N1[C@H]2CC3CC[C@@]2(CS1(=O)=O)C3(C)C`, the TGI in the assay with SF-268 CNS, with RPMI-8226 leukemia, in the assay on OVCAR-5 ovarian, in the assay on BT-549 breast, in the assay on COLO 205 colon and in the assay on HOP-92 NSCLC was above 100 µM each time. For the same compound, in the assay with OVCAR-8 ovarian, the TGI was above 100 µM.

Regarding `CC(=O)NC1C(OCc2ccccc2)OC(CO)C(O)C1OCC(=O)N1CCCC1C(=O)N[C@@H](CCC(=O)NCCCCNc1c2ccccc2nc2cccc([N+](=O)[O-])c12)C(N)=O` (some centres undefined), the TGI in the assay with SF-268 CNS is above 100 µM; in the assay on RPMI-8226 leukemia, above 100 µM; in the assay on OVCAR-5 ovarian, 88.5 µM; in the assay on BT-549 breast, 43.7 µM; in the assay on COLO 205 colon, 46.4 µM; in the assay with 786-0 renal, above 100 µM. Further, the TGI in the assay with HOP-92 NSCLC was 28.7 µM; with OVCAR-8 ovarian, above 100 µM.

Turning to `C[C@@]1(O)C2CC3CC1(c1ccccc1)CC(/C3=N/O)/C2=N\O` (some centres undefined), the TGI with SF-268 CNS, with UACC-62 melanoma, in the assay with OVCAR-5 ovarian, in the assay on COLO 205 colon, with 786-0 renal and in the assay with RXF 393 renal was above 100 µM each time. For the same compound, the TGI in the assay on HOP-92 NSCLC and in the assay on OVCAR-8 ovarian was above 100 µM in each case.

Consider `Cc1c(/C=N/NC(=O)c2ccccc2O)c(=O)n(-c2ccccc2)n1C`, for which the TGI in the assay with SF-268 CNS, in the assay with RPMI-8226 leukemia, in the assay with UACC-62 melanoma, with COLO 205 colon, with 786-0 renal and in the assay on RXF 393 renal was above 100 µM in each case. The TGI in the assay on HOP-92 NSCLC and with OVCAR-8 ovarian was above 100 µM in each case.

`N#CN1C2CCC1CC(=O)C2`: the TGI in the assay with SF-268 CNS, with RPMI-8226 leukemia, in the assay with UACC-62 melanoma, in the assay on OVCAR-5 ovarian, in the assay with BT-549 breast and with COLO 205 colon was above 100 µM each time. Also, the TGI with 786-0 renal, in the assay on HOP-92 NSCLC and in the assay with OVCAR-8 ovarian was above 100 µM in each case.

As to `CCCCCOc1ccc(C=Nc2ccc(CCc3ccc(N=Cc4ccc(OCCCCC)cc4)cc3)cc2)cc1`, the TGI with SF-268 CNS, in the assay on RPMI-8226 leukemia, in the assay with UACC-62 melanoma, in the assay with OVCAR-5 ovarian, in the assay on COLO 205 colon and in the assay on RXF 393 renal was above 100 µM each time. In addition, the TGI in the assay with HOP-92 NSCLC and with OVCAR-8 ovarian was above 100 µM in each case.

Turning to `CNC(C)(C)Cc1ccc(Cl)cc1`, the TGI in the assay with SF-268 CNS, with RPMI-8226 leukemia, in the assay on UACC-62 melanoma, with COLO 205 colon, in the assay with 786-0 renal and in the assay on RXF 393 renal was above 100 µM each time. Besides, in the assay with OVCAR-8 ovarian, the TGI is above 100 µM.

Take `CCCCN(CCCC)Cc1cc(Nc2ccnc3cc(Cl)ccc23)ccc1O`: the GI50 with SF-268 CNS was above 100 µM; with RPMI-8226 leukemia it was 6.6 µM; in the assay on COLO 205 colon, 6.68 µM; in the assay on RXF 393 renal it was 20.9 µM; with HOP-92 NSCLC, 0.982 µM; with OVCAR-8 ovarian, 9.03 µM. Also, the TGI in the assay on SF-268 CNS was above 100 µM; in the assay with RPMI-8226 leukemia, above 100 µM; in the assay on COLO 205 colon it was above 100 µM; in the assay with RXF 393 renal, above 100 µM; in the assay with HOP-92 NSCLC, 22.9 µM; in the assay on OVCAR-8 ovarian it was above 100 µM.

In the case of `O=C(/C=C(/C=C/c1ccc2[nH]ccc2c1)OB(F)F)/C=C/c1ccc2[nH]ccc2c1`, the GI50 was 1.51 µM in the assay on SF-268 CNS; 1.85 µM in the assay with UACC-62 melanoma; 2.75 µM with OVCAR-5 ovarian; 1.56 µM with RXF 393 renal; 2.68 µM in the assay on HOP-92 NSCLC; 2.51 µM with OVCAR-8 ovarian. For the same compound, the TGI with SF-268 CNS was 6.41 µM; in the assay on UACC-62 melanoma, 5.02 µM; in the assay with OVCAR-5 ovarian, above 100 µM; in the assay on RXF 393 renal it was 3.63 µM; with HOP-92 NSCLC it was above 100 µM; with OVCAR-8 ovarian it was above 100 µM.

As for `Nc1n(CC(=O)c2ccccc2)nc2sc(-c3ccccc3)n[n+]12`, the TGI is 62.5 µM with SF-268 CNS; 58.8 µM with RPMI-8226 leukemia; 25.1 µM in the assay on UACC-62 melanoma; above 100 µM with OVCAR-5 ovarian; above 100 µM in the assay on BT-549 breast; 47 µM with COLO 205 colon. In addition, the TGI in the assay with 786-0 renal came out at 48.4 µM; in the assay on RXF 393 renal, 25.1 µM; in the assay with OVCAR-8 ovarian, 38.8 µM.

With `CN1CCC(CNc2cc(C3(C(=O)Nc4cc(C(=O)Nc5ccc(Cl)c(C(F)(F)F)c5)ccc4F)CC3)ncn2)CC1`, the GI50 was 2.08 µM in the assay with SF-268 CNS, 3.28 µM in the assay on OVCAR-5 ovarian, 3.01 µM in the assay on BT-549 breast and 3.72 µM in the assay with OVCAR-8 ovarian. Moreover, the TGI in the assay with SF-268 CNS amounted to 5.5 µM; with OVCAR-5 ovarian, 11.4 µM; with BT-549 breast, 9.89 µM; in the assay on OVCAR-8 ovarian, 14.9 µM.

Take `N=C1C(=N)c2ccccc2-c2ccccc21.[Cl-].[Ru+2].c1ccc(-c2ccccn2)nc1.c1ccc(-c2ccccn2)nc1`: the TGI in the assay with SF-268 CNS, with UACC-62 melanoma, in the assay on OVCAR-5 ovarian, in the assay on 786-0 renal, in the assay on RXF 393 renal and in the assay on HOP-92 NSCLC was above 100 µM each time. In the assay on OVCAR-8 ovarian, this compound had a TGI above 100 µM.

The values above are taken from PubChem BioAssay (NCI).
